The term pIC50 denotes the negative decadic logarithm of the IC50, by convention in mol/L.

pIC50: −log10 of the molar value.

Chain of Human factor D (P00746 26-253): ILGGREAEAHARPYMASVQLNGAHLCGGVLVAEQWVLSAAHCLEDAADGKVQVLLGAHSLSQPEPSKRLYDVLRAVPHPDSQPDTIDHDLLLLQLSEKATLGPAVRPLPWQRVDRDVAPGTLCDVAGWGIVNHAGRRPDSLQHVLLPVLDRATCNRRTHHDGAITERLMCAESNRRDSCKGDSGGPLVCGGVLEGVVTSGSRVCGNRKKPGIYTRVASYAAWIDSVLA

The assay deals with Human factor D (Homo sapiens (Human), UniProt P00746). The experiment in a line: Human Factor D Assay. Format: biochemical. To be noted: Human factor D purified from human serum, 80 nM; substrate Z-L-Lys-SBzl with DTNB; assay of Example 8. Here is the method:
The assay of Example 8 was used to determine the IC50's of the compounds. Other standard factor D inhibition assays are also available.
Example 8. Human Factor D Assay
Human factor D (purified from human serum, Complement Technology, Inc.) at 80 nM final concentration is incubated with test compound at various concentrations for 5 minutes at room temperature in 50 mM Tris, 1M NaCl, pH 7.5. A synthetic substrate Z-L-Lys-SBzl and DTNB (Ellman's reagent) are added to final concentrations of 100 µM each. The increase in color is recorded at OD405 nm in a microplate in kinetic mode over 30 minutes with 30 second time points in a […]. IC50 values are calculated by non-linear regression from the percentage of inhibition of complement factor D activity as a function of test compound concentration.
On to `CC(=O)c1cn(CC(=O)N2C[C@H](F)C[C@H]2C(=O)Nc2cccc(OC(F)(F)F)c2F)c2cc(OCP(=O)(O)O)ccc12` [Compound 27, (3-acetyl-1-(2-((2S,4R)-4-fluoro-2-(2-fluoro-3-(trifluoromethoxy)phenyl-carbamoyl)pyrrolidin-1-yl)-2-oxoethyl)-1H-indol-6-yloxy)methylphosphonic acid], for which the pIC50 was over 6.00. `CC(=O)c1cn(CC(=O)N2C[C@H](F)C[C@H]2C(=O)Nc2cccc(-c3ccccc3Cl)c2F)c2ccc(Oc3cnc(Cl)nc3)cc12` [Compound 43, (2S,4R)-1-(2-(3-acetyl-5-(2-chloropyrimidin-5-yloxy)-1H-indol-1-yl)acetyl)-N-(2′-chloro-2-fluorobiphenyl-3-yl)-4-fluoropyrrolidine-2-carboxamide] showed a pIC50 of over 6.00.

In turn, `CCOP(=O)(CC)COc1ccc2c(C(C)=O)cn(CC(=O)N3C[C@H](F)C[C@H]3C(=O)NCc3cccc(Cl)c3F)c2c1` (stereo partly drawn) [Compound 14, ethyl (3-acetyl-1-(2-((2S,4R)-2-(3-chloro-2-fluorobenzylcarbamoyl)-4-fluoropyrrolidin-1-yl)-2-oxoethyl)-1H-indol-6-yloxy)methyl(eth-yl)phosphinate] gave a pIC50 of over 6.00. Regarding `CC(C)(C)NS(=O)(=O)COc1ccc2c(C(N)=O)nn(CC(=O)N3C[C@H](F)C[C@H]3C(=O)Nc3cccc(-c4ccccc4Cl)c3F)c2c1` [Compound 28, 6-(N-tert-butylsulfamoylmethoxy)-1-(2-((2S,4R)-2-(2′-chloro-2-fluorobiphenyl-3-ylcarbamoyl)-4-fluoropyrrolidin-1-yl)-2-oxoethyl)-1H-indazole-3-carboxamide], the pIC50 is over 6.00. Compound `CC(=O)c1cn(CC(=O)N2C[C@H](F)C[C@H]2C(=O)NCc2cccc(Cl)c2F)c2cc(OCP(=O)(OCOC(=O)C(C)(C)C)OCOC(=O)C(C)(C)C)ccc12` [Compound 21, (((3-acetyl-1-(2-((2S,4R)-2-(3-chloro-2-fluorobenzylcarbamoyl)-4-fluoropyrrolidin-1-yl)-2-oxoethyl)-1H-indol-6-yloxy)methyl)phosph-oryl)bis(oxy)bis(meth-ylene) bis(2,2-dimethylpropanoate)] showed a pIC50 of over 6.00.

Values taken from patent publication US9732104B2, “Ether compounds for treatment of complement mediated disorders” (Achillion Pharmaceuticals, Inc., priority 2014, dated 2017).
